Test results as given in ChEMBL document CHEMBL5154839, “Discovery of a selective and covalent small-molecule inhibitor of BFL-1 protein that induces robust apoptosis in cancer cells” (Eur J Med Chem, 2022).
The source made the active and inactive calls. No cut-off for these calls is given here.

Experiments:
MM1.S = assay: Growth inhibition of human MM1.S cells incubated for 4 days by WST assay; assay type: functional, cell-based; conditions: 96 h
Bcl-2-related protein A1 [1] = molecular target: T1, Bcl-2-related protein A1 (Homo sapiens, UniProt Q16548); assay: Displacement of fluorescein tagged BID BH3 peptide from His-tagged recombinant BFL-1 (1 to 151 residues) (unknown origin) expressed in Escherichia coli BL21 (DE3) assessed as inhibition constant incubated for 24 hrs by fluorescence polarization-based competitive binding assay
T1 sequence (Q16548 whole entry): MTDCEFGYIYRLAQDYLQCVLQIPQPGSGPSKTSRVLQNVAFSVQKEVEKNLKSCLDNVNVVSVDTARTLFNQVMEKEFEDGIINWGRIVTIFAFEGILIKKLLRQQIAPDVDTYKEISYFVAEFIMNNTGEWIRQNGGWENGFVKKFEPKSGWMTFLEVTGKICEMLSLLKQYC

Bcl-2-related protein A1 [2] = molecular target: T1, Bcl-2-related protein A1; assay: Binding affinity to His-tagged recombinant BFL-1 (1 to 151 residues) (unknown origin) expressed in Escherichia coli BL21 (DE3) assessed as dissociation constant by surface plasmon resonance analysis
[3] = molecular target: Induced myeloid leukemia cell differentiation protein Mcl-1 (Homo sapiens, UniProt Q07820); assay: Displacement of fluorescein tagged BID BH3 peptide from human MCL-1 (172 to 327 residues) expressed in Escherichia coli BL21 (DE3) assessed as inhibition constant incubated for 1.5 hrs by fluorescence polarization-based competitive binding assay
Bcl-2-like protein 1 = Bcl-2-like protein 1 (Homo sapiens, UniProt Q07817); assay: Displacement of fluorescein tagged BAK peptide from N-terminal His tagged human BCL-xL (1 to 209 residues) expressed in Escherichia coli BL21 (DE3) assessed as inhibition constant incubated for 1.5 hrs by fluorescence polarization-based competitive binding assay
[4] = molecular target: Apoptosis regulator Bcl-2 (Homo sapiens, UniProt P10415); assay: Displacement of fluorescein tagged BIM peptide from N-terminal His tagged human BCL-2 (1 to 170 residues) expressed in Escherichia coli BL21 (DE3) assessed as inhibition constant incubated for 1.5 hrs by fluorescence polarization-based competitive binding assay
[5] = molecular target: T2, Bromodomain-containing protein 3 (Homo sapiens, UniProt Q15059); assay: Binding affinity to recombinant human BRD3 BD1 (24-144 residues) assessed as inhibition constant by fluorescence polarization assay
[6] = molecular target: T2, Bromodomain-containing protein 3; assay: Binding affinity to recombinant human BRD3 BD2 (306-417 residues) assessed as inhibition constant by fluorescence polarization assay
[7] = molecular target: beta-catenin-B-cell lymphoma 9 protein complex (Homo sapiens, UniProt P35222); assay: Inhibition of N-terminal biotinylated human BCL9 (350 to 375 residues)/C-terminal 6-His-tagged beta-catenin (1 to 781 residues) (unknown origin) expressed in Escherichia coli BL21 (DE3) protein-protein interaction assessed as inhibition constant incubated for 1 hr by Alphascreen assay
U-937 [8] = assay: Induction of apoptosis in human U-937 cells overexpressing BFL-1 assessed as increase in cytochrome c level incubated for 3 hrs by immunoblotting analysis; assay type: functional, cell-based
U-937 [9] = assay: Induction of apoptosis in human U-937 cells assessed as necrotic cells at 10 uM measured after 4 hrs by Annexin PI staining based flow cytometry method (reference value: 0.00 %); assay type: functional
U-937 [10] = assay: Induction of apoptosis in human U-937 cells assessed as early apoptotic cells at 20 uM measured after 4 hrs by Annexin PI staining based flow cytometry method (reference value: 1.95 %); assay type: functional
U-937 [11] = assay: Induction of apoptosis in human U-937 cells assessed as necrotic cells at 20 uM measured after 4 hrs by Annexin PI staining based flow cytometry method (reference value: 0.00 %); assay type: functional
U-937 [12] = assay: Induction of apoptosis in human U-937 cells assessed as early apoptotic cells at 40 uM measured after 4 hrs by Annexin PI staining based flow cytometry method (reference value: 1.95 %); assay type: functional
U-937 [13] = assay: Induction of apoptosis in human U-937 cells assessed as necrotic cells at 60 uM measured after 4 hrs by Annexin PI staining based flow cytometry method (reference value: 0.00 %); assay type: functional
HL-60 = assay: Growth inhibition of human HL-60 cells incubated for 4 days by WST assay; assay type: functional, cell-based; conditions: HL-60, 96 h
U-937 [14] = assay: Upregulation of BFL-1 protein expression in human U-937 cells by Western blotting analysis; assay type: functional, cell-based
U-937 [15] = assay: Induction of apoptosis in human U-937 cells assessed as caspase-3 cleavage measured after 24 hrs by Western blot analysis; assay type: functional, cell-based; conditions: DDE = dose-dependent effect

T2 sequence (Q15059 whole entry, the tested form may be a part): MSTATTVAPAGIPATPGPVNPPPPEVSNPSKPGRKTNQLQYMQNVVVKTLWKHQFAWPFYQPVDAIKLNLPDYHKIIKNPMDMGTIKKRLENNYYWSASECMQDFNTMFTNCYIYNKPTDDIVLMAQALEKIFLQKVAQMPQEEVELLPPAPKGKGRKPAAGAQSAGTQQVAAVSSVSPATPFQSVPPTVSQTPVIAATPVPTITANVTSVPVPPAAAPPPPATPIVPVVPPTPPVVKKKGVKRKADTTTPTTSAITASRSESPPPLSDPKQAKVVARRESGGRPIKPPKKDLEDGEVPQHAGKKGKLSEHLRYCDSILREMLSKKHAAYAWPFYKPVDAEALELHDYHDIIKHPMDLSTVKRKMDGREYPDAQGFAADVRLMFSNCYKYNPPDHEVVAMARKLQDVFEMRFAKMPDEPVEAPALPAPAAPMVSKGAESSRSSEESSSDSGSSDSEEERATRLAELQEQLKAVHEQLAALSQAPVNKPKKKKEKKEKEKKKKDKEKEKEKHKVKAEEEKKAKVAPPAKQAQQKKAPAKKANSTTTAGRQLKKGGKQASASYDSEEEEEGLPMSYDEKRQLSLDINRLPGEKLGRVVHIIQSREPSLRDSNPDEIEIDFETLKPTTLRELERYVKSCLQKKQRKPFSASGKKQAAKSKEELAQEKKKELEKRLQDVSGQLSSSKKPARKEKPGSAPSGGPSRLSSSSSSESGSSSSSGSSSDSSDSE
Chain of beta-catenin-B-cell lymphoma 9 protein complex (P35222 whole entry, the tested form may be a part): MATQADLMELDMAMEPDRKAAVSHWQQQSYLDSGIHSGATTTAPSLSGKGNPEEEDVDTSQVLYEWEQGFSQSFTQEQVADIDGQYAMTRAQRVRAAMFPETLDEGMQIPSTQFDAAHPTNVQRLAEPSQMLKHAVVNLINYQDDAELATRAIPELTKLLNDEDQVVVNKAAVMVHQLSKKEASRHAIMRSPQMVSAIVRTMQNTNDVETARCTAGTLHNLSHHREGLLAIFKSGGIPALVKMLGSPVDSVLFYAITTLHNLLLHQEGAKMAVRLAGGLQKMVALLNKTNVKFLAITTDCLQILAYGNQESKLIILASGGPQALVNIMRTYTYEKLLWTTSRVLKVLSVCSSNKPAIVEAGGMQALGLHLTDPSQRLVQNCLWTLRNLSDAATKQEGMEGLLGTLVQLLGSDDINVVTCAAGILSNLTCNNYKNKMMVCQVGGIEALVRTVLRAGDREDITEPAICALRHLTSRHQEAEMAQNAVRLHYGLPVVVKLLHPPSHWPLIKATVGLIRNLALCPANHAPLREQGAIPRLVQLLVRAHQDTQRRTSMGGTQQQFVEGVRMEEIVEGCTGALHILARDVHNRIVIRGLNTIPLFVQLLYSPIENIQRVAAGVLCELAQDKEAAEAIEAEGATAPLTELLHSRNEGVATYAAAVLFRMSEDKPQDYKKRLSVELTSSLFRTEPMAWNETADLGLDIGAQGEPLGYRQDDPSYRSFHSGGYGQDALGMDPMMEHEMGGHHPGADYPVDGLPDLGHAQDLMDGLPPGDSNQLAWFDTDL
Chain of beta-catenin-B-cell lymphoma 9 protein complex (O00512 whole entry, further chain, the tested form may be a part): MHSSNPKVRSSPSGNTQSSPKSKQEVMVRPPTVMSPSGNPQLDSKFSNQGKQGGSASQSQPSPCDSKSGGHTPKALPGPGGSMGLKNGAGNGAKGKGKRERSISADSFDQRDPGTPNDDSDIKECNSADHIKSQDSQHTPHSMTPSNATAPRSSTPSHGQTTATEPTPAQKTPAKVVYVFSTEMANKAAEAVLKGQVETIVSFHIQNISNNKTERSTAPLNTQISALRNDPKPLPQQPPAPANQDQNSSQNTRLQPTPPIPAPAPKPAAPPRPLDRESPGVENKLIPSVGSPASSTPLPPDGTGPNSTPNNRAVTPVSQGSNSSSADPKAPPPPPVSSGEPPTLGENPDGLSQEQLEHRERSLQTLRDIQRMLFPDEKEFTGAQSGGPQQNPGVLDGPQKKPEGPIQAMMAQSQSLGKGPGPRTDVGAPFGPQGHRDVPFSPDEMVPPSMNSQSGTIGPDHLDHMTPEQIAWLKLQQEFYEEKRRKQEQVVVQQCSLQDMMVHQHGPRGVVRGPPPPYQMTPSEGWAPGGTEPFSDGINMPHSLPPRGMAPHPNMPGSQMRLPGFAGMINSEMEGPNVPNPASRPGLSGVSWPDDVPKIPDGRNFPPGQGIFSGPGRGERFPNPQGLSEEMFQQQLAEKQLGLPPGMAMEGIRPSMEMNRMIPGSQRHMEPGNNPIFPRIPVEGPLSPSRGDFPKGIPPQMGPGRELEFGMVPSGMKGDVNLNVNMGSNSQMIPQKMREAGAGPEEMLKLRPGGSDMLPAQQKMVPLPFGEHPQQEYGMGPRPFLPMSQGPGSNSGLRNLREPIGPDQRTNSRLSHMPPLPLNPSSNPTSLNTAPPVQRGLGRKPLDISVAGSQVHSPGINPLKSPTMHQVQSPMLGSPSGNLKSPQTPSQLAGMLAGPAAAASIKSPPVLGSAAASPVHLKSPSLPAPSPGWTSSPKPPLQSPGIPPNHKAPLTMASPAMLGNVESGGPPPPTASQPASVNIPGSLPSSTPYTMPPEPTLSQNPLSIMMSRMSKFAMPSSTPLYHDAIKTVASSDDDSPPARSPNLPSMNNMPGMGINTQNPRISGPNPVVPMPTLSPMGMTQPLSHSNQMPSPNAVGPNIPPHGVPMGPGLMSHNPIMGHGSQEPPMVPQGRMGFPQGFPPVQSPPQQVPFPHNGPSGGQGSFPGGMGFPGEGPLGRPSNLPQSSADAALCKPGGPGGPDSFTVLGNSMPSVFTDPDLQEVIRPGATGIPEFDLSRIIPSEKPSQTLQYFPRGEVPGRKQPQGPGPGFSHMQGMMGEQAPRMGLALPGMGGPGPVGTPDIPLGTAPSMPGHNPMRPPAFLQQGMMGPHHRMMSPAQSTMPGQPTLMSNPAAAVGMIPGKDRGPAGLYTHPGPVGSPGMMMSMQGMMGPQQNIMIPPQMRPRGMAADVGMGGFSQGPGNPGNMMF
Chain of Apoptosis regulator Bcl-2 (P10415 whole entry, the tested form may be a part): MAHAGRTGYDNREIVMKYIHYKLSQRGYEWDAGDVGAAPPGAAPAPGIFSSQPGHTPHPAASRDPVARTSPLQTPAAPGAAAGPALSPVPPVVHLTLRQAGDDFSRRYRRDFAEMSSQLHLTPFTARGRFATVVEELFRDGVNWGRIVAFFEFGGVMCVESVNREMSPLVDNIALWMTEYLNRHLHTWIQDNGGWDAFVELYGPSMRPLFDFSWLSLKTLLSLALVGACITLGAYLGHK
Chain of Induced myeloid leukemia cell differentiation protein Mcl-1 (Q07820 whole entry, the tested form may be a part): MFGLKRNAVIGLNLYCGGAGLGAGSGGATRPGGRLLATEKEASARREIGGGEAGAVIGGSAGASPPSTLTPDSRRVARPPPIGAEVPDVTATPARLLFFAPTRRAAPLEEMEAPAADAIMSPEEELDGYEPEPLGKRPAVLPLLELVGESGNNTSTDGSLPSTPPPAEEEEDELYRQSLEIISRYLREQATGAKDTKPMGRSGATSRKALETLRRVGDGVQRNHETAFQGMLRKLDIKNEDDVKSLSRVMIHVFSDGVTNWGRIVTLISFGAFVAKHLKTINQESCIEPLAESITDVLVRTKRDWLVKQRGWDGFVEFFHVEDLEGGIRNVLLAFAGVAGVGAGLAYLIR
Chain of Bcl-2-like protein 1 (Q07817 whole entry, the tested form may be a part): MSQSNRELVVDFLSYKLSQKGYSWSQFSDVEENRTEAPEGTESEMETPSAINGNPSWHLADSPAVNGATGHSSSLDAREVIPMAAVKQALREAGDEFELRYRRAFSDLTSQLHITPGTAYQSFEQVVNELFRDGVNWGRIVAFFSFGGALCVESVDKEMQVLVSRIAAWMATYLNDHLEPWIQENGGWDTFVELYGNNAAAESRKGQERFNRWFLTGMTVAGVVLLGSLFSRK

IC50 (MM1.S): 6.8 µM
Ki (Bcl-2-related protein A1 [1]): 0.41 µM
Kd (Bcl-2-related protein A1 [2]): 0.262 µM
Ki [3]: 111 µM
Ki (Bcl-2-like protein 1): > 400 µM
Ki [4]: > 400 µM
Ki [5]: > 400 µM
Ki [6]: > 400 µM
Ki [7]: > 400 µM
IC50 (HL-60): 10.7 µM
SMILES: C=CC(=O)N1CCN(c2c3ccc(-c4cccc(F)c4)cc3nn2Cc2ccccc2)CC1
Activity (U-937 [8]): Active
Activity (U-937 [9]): 0.16%
Activity (U-937 [10]): 8.02%
Activity (U-937 [11]): 1.02%
Activity (U-937 [12]): 5.52%
Activity (U-937 [13]): 11.37%
Activity (U-937 [14]): Active
Activity (U-937 [15]): Dde
